Measured values as given in ChEMBL document CHEMBL5236656, “The effect of diphenylethane side-chain substituents on dibenzocyclohexadiene formation and their inhibition of α-synuclein aggregation in vitro” (Bioorg Med Chem, 2023).

How the values were obtained:
[1] = target: Alpha-synuclein (Homo sapiens) (UniProt P37840); assay: Inhibition of alpha-Synuclein (unknown origin) aggregation assessed as aggregation by measuring ThT fluorescence at 100 uM incubated for 5 days by ThT fluorescence assay (reference value: 100%); design: scale not given: the % may be the effect or the level left; conditions: time 5.0 day
[2] = target: Alpha-synuclein (Homo sapiens) (UniProt P37840); assay: Inhibition of alpha-Synuclein (unknown origin) aggregation assessed as aggregation by measuring ThT fluorescence at 500 uM incubated for 5 days by ThT fluorescence assay (reference value: 100%); design: scale not given: the % may be the effect or the level left; conditions: time 5.0 day

Row | SMILES | Activity [1] | Activity [2]
1 | Oc1cc2c(cc1O)-c1cc(O)c(O)cc1CC2 | 22.2% | 16.8%
2 | CC1(C)c2cc(O)c(O)cc2-c2c(ccc(O)c2O)C1(C)C | 36.1% | 15.5%
3 | CC1c2cc(O)c(O)cc2-c2c(ccc(O)c2O)C1C (configuration not stated) | 66.1% | 45.6%
4 | CC1(C)c2cc(O)c(O)cc2-c2cc(O)c(O)cc2C1(C)C | 56.1% | 39.8%
5 | CC(C)(c1ccc(O)c(O)c1)C(C)(C)c1ccc(O)c(O)c1 | 44.4% | 9.2%
6 | CC(c1ccc(O)c(O)c1)C(C)c1ccc(O)c(O)c1 (mixture of isomers) | 31.8% | 6.1%
7 | Cc1c(C)c2cc(O)c(O)cc2c2cc(O)c(O)cc12 | 47.3% | 19.3%
8 | C[C@@H]1Cc2cc(O)c(O)cc2-c2cc(O)c(O)cc2C[C@@H]1C | 28.6% | 13.6%
9 | Oc1ccc(CCc2ccc(O)c(O)c2)cc1O | 35.6% | 8.1%
10 | Oc1cc2c(cc1O)-c1c(ccc(O)c1O)CC2 | 27.8% | 10.7%
11 | Oc1cc2ccc3cc(O)c(O)cc3c2cc1O | 33.6% | 25.9%
